Measurements from PMC6410080 (Viruses, 2019).
Structures can show the parent of a compound that is named as a salt. Where two headings read alike, the source gives them in different places.

Experiments:
[1] = test system: ZIKV; settings: AG129 mice; for Infectious virus in the blood at day 7 p.i.: immunofocus assay
[2] = test system: DENV-1; assay: microbe, parasite or virus in culture; assay type: cell-based, dengue virus; settings: Dengue virus, DENV1, Huh-7, read-out: IC50 DENV-1
[3] = test system: VACV; assay: microbe, parasite or virus in culture; assay type: cell-based, vaccinia virus
[4] = test system: SINV; assay: microbe, parasite or virus in culture; assay type: cell-based, Sindbis virus; settings: Sindbis virus, HeLa Kyoto, read-out: IC50 SINV
[5] = test system: DENV-2; assay: DENV-2 infection assay / secondary screen (E protein staining); assay type: cell-based, dengue virus serotype 2; settings: Dengue virus, DENV2, Huh-7, 24 h; for inhibition at 10 µM: read-out: % inhibition (DENV-2 screen)
[6] = test system: DENV-3; assay: microbe, parasite or virus in culture; assay type: cell-based, dengue virus; settings: Dengue virus, DENV3, Huh-7, read-out: IC50 DENV-3
[7] = test system: SFV; assay type: cell-based, Semliki Forest virus
[8] = test system: ZIKV; assay: microbe, parasite or virus in culture; assay type: cell-based, Zika virus; settings: Zika virus, Huh-7, read-out: IC50 ZIKV
[9] = test system: Huh7 cells; settings: human
[10] = test system: SFV internalisation; assay type: cell-based, Semliki Forest virus
[11] = test system: EBOV VLP; assay: microbe, parasite or virus in culture; assay type: cell-based, Ebola virus; settings: Zaire ebolavirus, HeLa Kyoto, 48 h, read-out: IC50 EBOV
[12] = test system: SFV E1 trimer formation; settings: HeLa Kyoto, MOI 100; Chloroquine 100 μM
[13] = test system: VSV VLP; assay: microbe, parasite or virus in culture; assay type: cell-based, vesicular stomatitis virus; settings: Vesicular stomatitis virus, HeLa Kyoto, 24 h, read-out: IC50 VSV
[14] = test system: HSV-1; assay: microbe, parasite or virus in culture; assay type: cell-based, herpes simplex virus 1; settings: 8 h
[15] = test system: SFV; assay: microbe, parasite or virus in culture; assay type: cell-based, Semliki Forest virus; settings: Semliki Forest virus; for IC50: HeLa Kyoto, read-out: IC50 SFV (7 h); for inhibition at 10 µM: M-HeLa, 7 h, read-out: % inhibition (SFV screen)
[16] = test system: HIV-1; assay: microbe, parasite or virus in culture; assay type: cell-based, human immunodeficiency virus type 1
[17] = test system: RABV VLP; assay: microbe, parasite or virus in culture; assay type: cell-based, rabies virus; settings: Lyssavirus rabies, HeLa Kyoto, 24 h, read-out: IC50 RABV
[18] = test system: HCV; assay: microbe, parasite or virus in culture; assay type: cell-based, hepatitis C virus; settings: Hepatitis C virus, Huh7.5, read-out: IC50 HCV
[19] = in vitro; settings: human
[20] = test system: viruses/VLPs tested; assay type: cell-based
[21] = in vitro; settings: human; remark: listed apart in the source
[22] = test system: DID-labelled SFV hemifusion/fusion; assay type: cell-based, Semliki Forest virus; settings: HeLa Kyoto, 10 μM (20 μM Raloxifene; Bafilomycin 100 nM), 40 min at 37 °C
[23] = test system: VSV_Blam_VLP fusion; assay: microbe, parasite or virus in culture; assay type: cell-based; settings: Vesicular stomatitis virus, HeLa Kyoto, read-out: Inhibition of VSV_Blam_VLP fusion compared to DMSO controls
[24] = in vivo; settings: CD1, mouse, 1 mg/kg
[25] = 10 mg/kg
[26] = test system: YF17D; assay: organism not typed; assay type: cell-based, yellow fever 17D; settings: Huh-7, read-out: IC50 YF17D
[27] = test system: H5N1 VLP; assay: microbe, parasite or virus in culture; assay type: cell-based, influenza H5N1; settings: Influenza A virus, H5N1, HeLa Kyoto, 48 h, read-out: IC50 H5N1
[28] = test system: Renilla luciferase expression (protein synthesis); assay type: cell-based
[29] = test system: HeLa Kyoto cells; settings: human, 7 h
[30] = mouse, in vivo; cited from earlier work
[31] = read-out: IC50 DENV-2 (7 + 17 h)

SMILES | Infectious virus in the blood at day 7 p.i. [1] | IC50 [2] | IC50 [4] | inhibition at 10 µM [5] | IC50 [5, 31] | IC50 ([5]; read-out: IC50 DENV-2 (24 h)) | IC50 [6] | Activity when added before SFV or 30 and 60 min after internalisation [7] | IC50 [8] | TC50 DENV-2 (7 + 17 h) [9] | IC50 [11] | SFV E1 trimer formation [12] | IC50 [13] | IC50 [15] | inhibition at 10 µM [15] | IC50 [17] | IC50 [18] | inhibition at 10 µM [23] | IC50 [26] | IC50 [27] | also measured
CC(C)(C)c1cc(C=C(C#N)C#N)cc(C(C)(C)C)c1O [Tyrphostin A9] | infectious virus was detected in only two of six mice | 1.4 µM | ~0.8 µM | 99.7% | 1.2 µM | 0.4 µM | 1.2 µM | minor but reproducible decrease in activity | < 0.3 µM | >50 µM | 3.2 µM | No trimers were observed | 4.1 µM | 2.9 µM | 73.5% | 1.4 µM | < 0.3 µM | > 50% | < 0.3 µM | < 0.5 µM | ZIKV blood titres at days 1 and 3 ([1]; Tyrphostin A9 1 mg/kg PO, vs untreated): only minor and non significant differences; ZIKV-infected CD14+CD11c+ dendritic cells in blood, day 7 p.i. ([1]; without statistical significance): fewer infected CD14+CD11c+ dendritic cells; Reason for suspending administration ([1]; Tyrphostin A9 1 mg/kg PO, after the fourth administration): toxicity and weight loss; IC50 ([3]; Orthopoxvirus vaccinia, HeLa Kyoto, 8 h, read-out: IC50 VACV): 3.4 µM; Blood peak (Tyrphostin A9 1 mg/kg IP): 5 µM; Peak blood concentration (Tyrphostin A9 1 mg/kg PO, CD1 mice): 1.52 µM; Time of Addition [7]: Before and after fusion; TC50 DENV-2 (24 h) [9]: 28.5 µM; Internalised SFV E1/E2 after subtilisin treatment [10]: Loss of E1/E2; IC50 ([14]; Human alphaherpesvirus 1, Vero, read-out: IC50 HSV (Vero)): 1.5 µM; IC50 ([16]; Human immunodeficiency virus 1, 24 h, read-out: IC50 HIV): 1.1 µM; viability at 10 µM [19]: 105%; Viruses Inhibited [20]: All tested; viability at 24 h, 10 µM [21]: 50.5%; Inhibition of DID-SFV de-quenching (in words) [22]: Strong inhibition of de-quenching; concentration at 2 h [24]: 20 nM; concentration at 8 h [24]: 760 nM; Tmax ([24]; po): 1 h; Toxicity [25]: toxicity; Decrease of Renilla signal (protein synthesis) [28]: more than 50%
CC[C@@]1([C@@H]2O[C@@H]([C@H]3O[C@@](O)(CO)[C@H](C)C[C@@H]3C)C[C@@H]2C)CC[C@H]([C@]2(C)CC[C@]3(C[C@H](O)[C@@H](C)[C@@H]([C@@H](C)[C@@H](OC)[C@H](C)C(=O)O)O3)O2)O1 [Monensin, Monensin sodium salt] | cleared infectious virus from the blood by day 7 | 6.2 µM | 0.4 µM | 100% | 4.5 µM | 3.8 µM | ~3.6 µM | progressive and more dramatic decrease in activity | 5.5 µM | >50 µM | 4.5 µM | prevented trimer formation | 0.7 µM | 1.1 µM | 81.4% | 0.8 µM | 2.5 µM | > 50% | < 0.3 µM | 0.9 µM | ZIKV blood titres at day 1 p.i. ([1]; qRT-PCR and immunofocus assay, vs untreated): significantly reduced blood titres; TC50 SFV (7 h) [29]: >50 µM; TC50 SFV (7h) [29]: >50000 µM; IC50 VACV [3]: No inhibition; TC50 DENV-2 (24 h) ([9]; 24 h): >50 µM; Well tolerated dose [30]: up to 70 mg/kg; IC50 HSV (Vero) ([14]; virus, Vero cells): No inhibition; IC50 HIV ([16]; virus, HeLa TZM-bl, 24 h): No inhibition; viability at 10 µM ([19]; % viability (SFV screen)): 108%; viability at 10 µM [21]: 81%
